Test results: publication PMC7402526, “An in vitro quantitative systems pharmacology approach for deconvolving mechanisms of drug-induced, multilineage cytopenias” (PLoS Computational Biology, 2020)

Tests used:
monocytes (monocyte-lin) = assay: MLTA, Mono: concentration-response and QSP model fit; type: cell-based, human; settings: Homo sapiens, Monocyte, 144 h
Outline: (§1)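 Freeze-thawed primary human bone marrow CD34+ cells were cultured 6 days in SFEM II with a cytokine cocktail, drug added on day 0. Subsets were counted by 17-parameter flow cytometry with TruCount beads and normalized to vehicle wells. An Emax QSP model (Emax 0–2, L1 regularization) was fitted to these counts.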

granulocytes (Gran-lin) = assay: MLTA, Gran: concentration-response and QSP model fit; type: cell-based, human; settings: Homo sapiens, 144 h
Outline: as §1

B cells (B-lin) = assay: MLTA, B-lin: concentration-response and QSP model fit; type: cell-based, human; settings: Homo sapiens, B-cell, 144 h
Outline: as §1

[1] = tested on: lymphocyte progenitors (LymP); assay: MLTA, LymP: concentration-response and QSP model fit; type: cell-based, human; settings: Homo sapiens, Lymphocyte, 144 h
Outline: as §1

[2] = tested on: monocyte progenitors (monocyte prog); assay: MLTA, MonoP: concentration-response and QSP model fit; type: cell-based, human; settings: Homo sapiens, Monocyte, 144 h
Outline: as §1

[3] = tested on: granulocyte-macrophage progenitor (GMPs); assay: MLTA, GMPs: concentration-response and QSP model fit; type: cell-based, human; settings: Homo sapiens, 144 h
Outline: as §1

[4] = tested on: total viable cells (totalViableCells); assay: MLTA, total live cells concentration-response; type: cell-based; settings: Homo sapiens, 144 h, 6 days, normalized to vehicle control, read-out: total_live normalized cell count
Outline: (§2)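 Freeze-thawed primary human bone marrow CD34+ cells in SFEM II with cytokine cocktail, drug added day 0, 6 days at 37°C, 5% CO2. Live/dead counts by 17-parameter flow cytometry with DAPI exclusion, bead-normalized, volume-corrected to cells/mL. Normalized per donor to mean of six vehicle wells; 2–7 donors pooled.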

[5] = tested on: total dead cells (totalDeadCells); assay: MLTA, total dead cells concentration-response; type: cell-based; settings: Homo sapiens, 144 h, 6 days, normalized to vehicle control, read-out: total_dead normalized cell count
Outline: as §2

[6] = QSP model fit of 6-day MLTA data

## CN(C)C(=O)c1cc2cnc(Nc3ccc(N4CCNCC4)cn3)nc2n1C1CCCC1 [ribociclib]
Monocytes (monocyte-lin); [6]
  EC50: 180 nM
Monocytes (monocyte-lin); dose 0.2 nM, 6 days, normalized to vehicle control, read-out: Mon normalized cell count
  activity at 0.0002 µM: 84.3%
Monocytes (monocyte-lin); dose 1 nM, 6 days, normalized to vehicle control, read-out: Mon normalized cell count
  activity at 0.001 µM: 96.7%
Monocytes (monocyte-lin); dose 5 nM, 6 days, normalized to vehicle control, read-out: Mon normalized cell count
  activity at 0.005 µM: 92.1%
Monocytes (monocyte-lin); dose 25 nM, 6 days, normalized to vehicle control, read-out: Mon normalized cell count
  activity at 0.025 µM: 78.1%
Monocytes (monocyte-lin); dose 100 nM, 6 days, normalized to vehicle control, read-out: Mon normalized cell count
  activity at 0.1 µM: 55.4%
Monocytes (monocyte-lin); dose 500 nM, 6 days, normalized to vehicle control, read-out: Mon normalized cell count
  activity at 0.5 µM: 31.4%
Monocytes (monocyte-lin); dose 2500 nM, 6 days, normalized to vehicle control, read-out: Mon normalized cell count
  activity at 2.5 µM: 8.51%
Monocytes (monocyte-lin); parameter from QSP model fitting, read-out: Emax_drug_Mono
  Emax: 19.5%
Granulocytes (Gran-lin); dose 0.2 nM, 6 days, normalized to vehicle control, read-out: Gran normalized cell count
  activity at 0.0002 µM: 92.9%
Granulocytes (Gran-lin); dose 1 nM, 6 days, normalized to vehicle control, read-out: Gran normalized cell count
  activity at 0.001 µM: 98.1%
Granulocytes (Gran-lin); dose 5 nM, 6 days, normalized to vehicle control, read-out: Gran normalized cell count
  activity at 0.005 µM: 109%
Granulocytes (Gran-lin); dose 25 nM, 6 days, normalized to vehicle control, read-out: Gran normalized cell count
  activity at 0.025 µM: 74.6%
Granulocytes (Gran-lin); dose 100 nM, 6 days, normalized to vehicle control, read-out: Gran normalized cell count
  activity at 0.1 µM: 50.7%
Granulocytes (Gran-lin); dose 500 nM, 6 days, normalized to vehicle control, read-out: Gran normalized cell count
  activity at 0.5 µM: 23.7%
Granulocytes (Gran-lin); dose 2500 nM, 6 days, normalized to vehicle control, read-out: Gran normalized cell count
  activity at 2.5 µM: 6.7%
Granulocytes (Gran-lin); parameter from QSP model fitting, read-out: Emax_drug_Gran
  Emax: 0.0359%
B cells (B-lin); [6]
  EC50: 35.8 nM
B cells (B-lin); dose 0.2 nM, 6 days, normalized to vehicle control, read-out: B-lin normalized cell count
  activity at 0.0002 µM: 74.3%
B cells (B-lin); dose 1 nM, 6 days, normalized to vehicle control, read-out: B-lin normalized cell count
  activity at 0.001 µM: 107%
B cells (B-lin); dose 5 nM, 6 days, normalized to vehicle control, read-out: B-lin normalized cell count
  activity at 0.005 µM: 79.4%
B cells (B-lin); dose 25 nM, 6 days, normalized to vehicle control, read-out: B-lin normalized cell count
  activity at 0.025 µM: 61.2%
B cells (B-lin); dose 100 nM, 6 days, normalized to vehicle control, read-out: B-lin normalized cell count
  activity at 0.1 µM: 46.3%
B cells (B-lin); dose 500 nM, 6 days, normalized to vehicle control, read-out: B-lin normalized cell count
  activity at 0.5 µM: 28%
B cells (B-lin); dose 2500 nM, 6 days, normalized to vehicle control, read-out: B-lin normalized cell count
  activity at 2.5 µM: 28.3%
B cells (B-lin); parameter from QSP model fitting, read-out: Emax_drug_B
  Emax: 30.5%
[1]; dose 0.2 nM, 6 days, normalized to vehicle control, read-out: LymP normalized cell count
  activity at 0.0002 µM: 87.8%
[1]; dose 1 nM, 6 days, normalized to vehicle control, read-out: LymP normalized cell count
  activity at 0.001 µM: 95.2%
[1]; dose 5 nM, 6 days, normalized to vehicle control, read-out: LymP normalized cell count
  activity at 0.005 µM: 100%
[1]; dose 25 nM, 6 days, normalized to vehicle control, read-out: LymP normalized cell count
  activity at 0.025 µM: 61.7%
[1]; dose 100 nM, 6 days, normalized to vehicle control, read-out: LymP normalized cell count
  activity at 0.1 µM: 39.1%
[1]; dose 500 nM, 6 days, normalized to vehicle control, read-out: LymP normalized cell count
  activity at 0.5 µM: 17.4%
[1]; dose 2500 nM, 6 days, normalized to vehicle control, read-out: LymP normalized cell count
  activity at 2.5 µM: 4.31%
[1]; parameter from QSP model fitting, read-out: Emax_drug_LymP
  Emax: 0.032%
[2]; dose 0.2 nM, 6 days, normalized to vehicle control, read-out: MonoPs normalized cell count
  activity at 0.0002 µM: 100%
[2]; dose 1 nM, 6 days, normalized to vehicle control, read-out: MonoPs normalized cell count
  activity at 0.001 µM: 108%
[2]; dose 5 nM, 6 days, normalized to vehicle control, read-out: MonoPs normalized cell count
  activity at 0.005 µM: 99.8%
[2]; dose 25 nM, 6 days, normalized to vehicle control, read-out: MonoPs normalized cell count
  activity at 0.025 µM: 80.2%
[2]; dose 100 nM, 6 days, normalized to vehicle control, read-out: MonoPs normalized cell count
  activity at 0.1 µM: 45.6%
[2]; dose 500 nM, 6 days, normalized to vehicle control, read-out: MonoPs normalized cell count
  activity at 0.5 µM: 16.7%
[2]; dose 2500 nM, 6 days, normalized to vehicle control, read-out: MonoPs normalized cell count
  activity at 2.5 µM: 6.97%
[2]; parameter from QSP model fitting, read-out: Emax_drug_MonoP
  Emax: 0.0352%
[3]; [6]
  EC50: 141 nM
[3]; dose 0.2 nM, 6 days, normalized to vehicle control, read-out: GMPs normalized cell count
  activity at 0.0002 µM: 91.2%
[3]; dose 1 nM, 6 days, normalized to vehicle control, read-out: GMPs normalized cell count
  activity at 0.001 µM: 92.5%
[3]; dose 5 nM, 6 days, normalized to vehicle control, read-out: GMPs normalized cell count
  activity at 0.005 µM: 103%
[3]; dose 25 nM, 6 days, normalized to vehicle control, read-out: GMPs normalized cell count
  activity at 0.025 µM: 85%
[3]; dose 100 nM, 6 days, normalized to vehicle control, read-out: GMPs normalized cell count
  activity at 0.1 µM: 73.4%
[3]; dose 500 nM, 6 days, normalized to vehicle control, read-out: GMPs normalized cell count
  activity at 0.5 µM: 54.4%
[3]; dose 2500 nM, 6 days, normalized to vehicle control, read-out: GMPs normalized cell count
  activity at 2.5 µM: 29.5%
[4]; dose 0.2 nM
  viability at 0.0002 µM: 90%
[4]; dose 1 nM
  viability at 0.001 µM: 97.8%
[4]; dose 5 nM
  viability at 0.005 µM: 106%
[4]; dose 25 nM
  viability at 0.025 µM: 79.4%
[4]; dose 100 nM
  viability at 0.1 µM: 66.6%
[4]; dose 500 nM
  viability at 0.5 µM: 42.1%
[4]; dose 2500 nM
  viability at 2.5 µM: 17.8%
[5]; dose 0.2 nM
  activity at 0.0002 µM: 117%
[5]; dose 1 nM
  activity at 0.001 µM: 117%
[5]; dose 5 nM
  activity at 0.005 µM: 129%
[5]; dose 25 nM
  activity at 0.025 µM: 81.1%
[5]; dose 100 nM
  activity at 0.1 µM: 60%
[5]; dose 500 nM
  activity at 0.5 µM: 32.1%
[5]; dose 2500 nM
  activity at 2.5 µM: 27.8%
